Like-named read-outs stand apart in the source and are kept apart here. Starred links: 1 amine or outer side, 2 acyl side, 3 side chain; linkers in the order of their positions; H or OH if unused. Positions of bridges follow the written chain, without caps; N, C: chain ends. Non-standard residues stand in square brackets, D forms with d. Residues, ends and D or L forms follow the SMILES beside them. *: point of attachment. NH(CH2)3NH(O2Oc(DOTA)) = O=C(O)CN1CCN(CC(=O)O)CCN(CC(=O)NCCOCCOCC(=O)NCCCN*)CCN(CC(=O)O)CC1; NH(CH2)3NHDOTA = O=C(O)CN1CCN(CC(=O)O)CCN(CC(=O)NCCCN*)CCN(CC(=O)O)CC1; X3 = O=C(O)CN1CCN(CC(=O)O)CCN(CC(=O)NCCCOCCOCCOCCCN*)CCN(CC(=O)O)CC1; DOTA = O=C(O)CN1CCN(CC(=O)O)CCN(CC(=O)*)CCN(CC(=O)O)CC1; Phe(3,4-Cl2) = N[C@@H](Cc1ccc(Cl)c(Cl)c1)C(=O)O; mXylylene = c1cc(C[*:1])cc(C[*:2])c1; X2 = O=C(CN1CCC(N[*:1])CC1)[*:2]; X1 = O=C(CN1CCN([*:1])CC1)[*:2]; Suc = O=C(CCC(=O)[*:2])[*:1]; Propanoyl(3-OH) = O=C(CCO)*; Isovaleryl = CC(C)CC(=O)*; Nle = CCCC[C@H](N)C(=O)O; Dap = NC[C@H](N)C(=O)O
Assays:
[1] = target: T1, CAIX-expressing human HT-29 colorectal cancer cells (Homo sapiens, UniProt Q16790); experiment: FACS binding assay (IC50 determination, competition with tracer 3BP-2776 or 3BP-4149); settings: 4° C., 1 hour, read-out: pIC50 category (activity) (converted)
T1 construct: CAIX-expressing human HT-29 colorectal cancer cells; host or cells: HT-29 human colorectal cancer cells
How it was run: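 HT-29 cells in FACS buffer (PBS, 1% FCS) at 500.000 cells/ml were exposed to compounds competing with a labelled tracer, with biotinylated compounds detected by 1 μg/mL APC-streptavidin for 30 min on ice. APC/Cy5 median fluorescence was read by flow cytometry and IC50 derived by 4PL fit.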

[2] = target: T2, human carbonic anhydrase IX (hCAIX-Fc) (Homo sapiens, UniProt Q16790); experiment: Surface plasmon resonance assay with hCAIX-Fc; format: binding; settings: 25° C.; for t1/2 category (activity): SPR dissociation half-life, hCAIX-Fc; for Kd: SPR, hCAIX-Fc captured, read-out: pKD category (activity) (converted)
T2 construct: purchased SinoBliological (Sino Biological) 10107-H02H

[3] = Plasma stability assay, mouse plasma; settings: mouse plasma, 37°C, 24 h
[4] = FACS binding assay, HT-29 cells, competition with tracer 3BP-2776 (10 nM, biotin-labeled)
[5] = FACS competition on HT-29 cells, Tracer ID 3BP-2776 (10 nM, biotin-labeled)

Row | IC50 [1, 4] | t1/2 category (activity) [2] | Kd [2] | % intact compound remaining (incubation time) [3] | IC50 [1, 5] | Structure (SMILES)
1 | < 10 nM | A (t1/2>15.0 minutes) | < 10 nM | 81% | – | CC(C)C[C@@H]1NC(=O)[C@H](Cc2c[nH]c3ccccc23)NC(=O)[C@H](CC(N)=O)NC(=O)[C@H]2CCCN2C(=O)[C@H](CCC(=O)O)NC(=O)[C@@H](NC(=O)[C@H](Cc2ccc(O)cc2)NC(=O)[C@@H](NC(=O)CN2CCC(NC(=O)CN3CCN(CC(=O)O)CCN(CC(=O)O)CCN(CC(=O)O)CC3)CC2)C(C)C)CSCc2cccc(c2)CSC[C@@H](C(N)=O)NC(=O)[C@H](CO)NC(=O)[C@H](Cc2c[nH]c3ccccc23)NC(=O)[C@H]([C@@H](C)O)NC1=O [3BP-4103] ({DOTA}-[X2]VYCE[dP]NWLTWSC-NH2; linker 4-13 via mXylylene)
2 | < 10 nM | B (t1/2 between 5.1 and 15.0 minutes) | < 10 nM | >95% | – | CC(C)C[C@@H]1NC(=O)[C@H](Cc2ccc(Cl)c(Cl)c2)NC(=O)[C@H](CC(=O)O)NC(=O)[C@H]2CCCN2C(=O)[C@H](CCC(=O)O)NC(=O)[C@@H](NC(=O)[C@H](Cc2ccc(O)cc2)NC(=O)[C@@H](NC(=O)CN2CCC(NC(=O)CN3CCN(CC(=O)O)CCN(CC(=O)O)CCN(CC(=O)O)CC3)CC2)C(C)C)CSCc2cccc(c2)CSC[C@@H](C(N)=O)NC(=O)[C@H](CO)NC(=O)[C@H](Cc2c[nH]c3ccccc23)NC(=O)[C@H]([C@@H](C)O)NC1=O [3BP-4133] ({DOTA}-[X2]VYCE[dP]D[Phe(3,4-Cl2)]LTWSC-NH2; linker 4-13 via mXylylene)
3 | – | B (t1/2 between 5.1 and 15.0 minutes) | < 10 nM | >95% | < 10 nM | CC(C)CC(=O)N[C@@H](Cc1ccc(O)cc1)C(=O)N[C@H]1CSCc2cccc(c2)CSC[C@@H](C(N)=O)NC(=O)[C@H](CCC(=O)NCCCNC(=O)COCCOCCNC(=O)CN2CCN(CC(=O)O)CCN(CC(=O)O)CCN(CC(=O)O)CC2)NC(=O)[C@H](Cc2c[nH]c3ccccc23)NC(=O)[C@H]([C@@H](C)O)NC(=O)[C@H](CC(C)C)NC(=O)[C@H](Cc2c[nH]c3ccccc23)NC(=O)[C@H](CC(=O)O)NC(=O)[C@H]2CCCN2C(=O)[C@H](CCC(=O)O)NC1=O [3BP-3740] (Isovaleryl-YCE[dP]DWLTWE(NH(CH2)3NH(O2Oc(DOTA)))C-NH2; linker 2-11 via mXylylene)
4 | – | C (t1/2 between 2.1 and 5.0 minutes) | < 10 nM | >95% | < 10 nM | CC(C)C[C@@H]1NC(=O)[C@H](Cc2c[nH]c3ccccc23)NC(=O)[C@@H]2CCCCNC(=O)CC[C@H](NC1=O)C(=O)N[C@@H](Cc1c[nH]c3ccccc13)C(=O)N[C@@H](CO)C(=O)N[C@H](C(N)=O)CSCc1cccc(c1)CSC[C@H](NC(=O)[C@H](Cc1ccc(O)cc1)NC(=O)CN1CCN(CC(=O)O)CCN(CC(=O)O)CCN(CC(=O)O)CC1)C(=O)N[C@@H](CCC(=O)O)C(=O)N1CCC[C@@H]1C(=O)N2 [3BP-3934, DOTA-Tyr-[Cys(3MeBn)-Glu-pro-{Lys-Trp-Leu-Glu}-Trp-Ser-Cys]-NH2] ({DOTA}-YCE[dP]KWLEWSC-NH2; linker 2-11 via mXylylene; lactam 5-8)
5 | – | C (t1/2 between 2.1 and 5.0 minutes) | < 10 nM | >95% | < 10 nM | CC(C)C[C@@H]1NC(=O)[C@H](Cc2c[nH]c3ccccc23)NC(=O)[C@H](CC(=O)O)NC(=O)[C@H]2CCCN2C(=O)[C@H](CCC(=O)O)NC(=O)[C@@H](NC(=O)[C@H](Cc2ccc(O)cc2)NC(=O)CCO)CSCc2cccc(c2)CSC[C@@H](C(N)=O)NC(=O)[C@H](CCC(=O)NCCCNC(=O)CN2CCN(CC(=O)O)CCN(CC(=O)O)CCN(CC(=O)O)CC2)NC(=O)[C@H](Cc2c[nH]c3ccccc23)NC(=O)[C@H]([C@@H](C)O)NC1=O [3BP-3842] ({Propanoyl(3-OH)}-YCE[dP]DWLTWE(NH(CH2)3NHDOTA)C-NH2; linker 2-11 via mXylylene)
6 | – | B (t1/2 between 5.1 and 15.0 minutes) | < 10 nM | 92% | < 10 nM | CCCC[C@H](NC(=O)CCC(=O)NCCCOCCOCCOCCCNC(=O)CN1CCN(CC(=O)O)CCN(CC(=O)O)CCN(CC(=O)O)CC1)C(=O)N[C@@H](Cc1ccc(O)cc1)C(=O)N[C@H]1CSCc2cccc(c2)CSC[C@@H](C(N)=O)NC(=O)[C@H](CO)NC(=O)[C@H](Cc2c[nH]c3ccccc23)NC(=O)[C@H]([C@@H](C)O)NC(=O)[C@H](CC(C)C)NC(=O)[C@H](Cc2c[nH]c3ccccc23)NC(=O)[C@H](CC(=O)O)NC(=O)[C@H]2CCCN2C(=O)[C@H](CCC(=O)O)NC1=O [3BP-3870] ({X3-Suc}-[Nle]YCE[dP]DWLTWSC-NH2; linker 3-12 via mXylylene)
7 | – | B (t1/2 between 5.1 and 15.0 minutes) | – | >95% | < 10 nM | CC(C)C[C@@H]1NC(=O)[C@H](Cc2c[nH]c3ccccc23)NC(=O)[C@H](CC(=O)O)NC(=O)[C@H]2CCCN2C(=O)[C@H](CCC(=O)O)NC(=O)[C@@H](NC(=O)[C@H](Cc2ccc(O)cc2)NC(=O)CN2CCN(CC(=O)O)CCN(CC(=O)O)CCN(CC(=O)O)CC2)CSCc2cccc(c2)CSC[C@@H](C(N)=O)NC(=O)[C@H](CO)NC(=O)[C@H](Cc2c[nH]c3ccccc23)NC(=O)[C@H]([C@@H](C)O)NC1=O [3BP-3859] ({DOTA}-YCE[dP]DWLTWSC-NH2; linker 2-11 via mXylylene)
8 | < 10 nM | D (t1/2≤2.0 minutes) | < 10 nM | 81% | – | CC(C)C[C@@H]1NC(=O)[C@H](Cc2c[nH]c3ccccc23)NC(=O)[C@H](CC(=O)O)NC(=O)[C@H]2CCCN2C(=O)[C@H](CCC(=O)O)NC(=O)[C@@H]2CSCc3cccc(c3)CSC[C@@H](C(N)=O)NC(=O)[C@H](CNC(=O)C[C@H](NC(=O)CN3CCN(C(=O)CN4CCN(CC(=O)O)CCN(CC(=O)O)CCN(CC(=O)O)CC4)CC3)C(=O)N2)NC(=O)[C@H](Cc2c[nH]c3ccccc23)NC(=O)[C@H]([C@@H](C)O)NC1=O [3BP-4255] ({DOTA}-[X1]DCE[dP]DWLTW[Dap]C-NH2; lactam 2-11; linker 3-12 via mXylylene)

Row | Structure (SMILES) | IC50 [1, 4] | t1/2 category (activity) [2] | Kd [2] | % intact compound remaining (incubation time) [3] | IC50 [1, 5]
9 | CC(C)C[C@@H]1NC(=O)[C@H](Cc2c[nH]c3ccccc23)NC(=O)[C@H](CC(=O)O)NC(=O)[C@H]2CCCN2C(=O)[C@H](CCC(=O)O)NC(=O)[C@@H](NC(=O)[C@H](Cc2ccc(O)cc2)NC(=O)[C@@H](NC(=O)CN2CCC(NC(=O)CN3CCN(CC(=O)O)CCN(CC(=O)O)CCN(CC(=O)O)CC3)CC2)C(C)C)CSCc2cccc(c2)CSC[C@@H](C(N)=O)NC(=O)[C@H](CO)NC(=O)[C@H](Cc2c[nH]c3ccccc23)NC(=O)[C@H]([C@@H](C)O)NC1=O [3BP-3905] ({DOTA}-[X2]VYCE[dP]DWLTWSC-NH2; linker 4-13 via mXylylene) | – | – | < 10 nM | 83% | –

Source: patent US20250339569A1, “CARBONIC ANHYDRASE IX LIGANDS” (priority 2021, published 2025)
